Measured values from patent US12171734B2, “Pathogenic bacteria” (Sporegen Limited, priority 2018, dated 2024).

System: multi-drug resistant M. tuberculosis (Peru isolate)
Experiment: microbe, parasite or virus in culture
Assay type: cell-based
Conditions: Mycobacterium tuberculosis, 240 h, read-out: MIC, MDR-TB Peru isolate

## NNC(=O)c1ccncc1 [Isoniazid]
  MIC: > 4 µg/mL

## CO[C@H]1/C=C/O[C@@]2(C)Oc3c(C)c(O)c4c(O)c(c(/C=N/N5CCN(C)CC5)c(O)c4c3C2=O)NC(=O)/C(C)=C\C=C\[C@H](C)[C@H](O)[C@@H](C)[C@@H](O)[C@@H](C)[C@H](OC(C)=O)[C@@H]1C [Rifampicin]
  MIC: > 4 µg/mL
